Reference: publication PMC9688475, “Identification and Analysis of Small Molecule Inhibitors of CRISPR-Cas9 in Human Cells” (Cells, 2022)
Values belong to the compound of their own block, whether it stands above or below them.

Columns and labels:
[1] = tested on: EGFP expression in uninduced reporter 293T cells; test: EGFP expression in uninduced reporter 293T cells; format: cell-based, human; conditions: for effect on EGFP expression in uninduced cells: 40 μM
Procedure: The reporter 293T cells were seeded into 96-well plates at a density of 10,000 cells per well and cultured overnight before the addition of DMSO alone or various compounds (in DMSO solution) at appropriate concentrations (0.125–100 μM) with or without 2 μg/mL doxycycline for an additional 72 h of incubation. The cells were then harvested for analysis with the CytoFLEX flow cytometer (Beckman Coulter, Brea, CA, USA) or analyzed by western blot with antibodies as indicated. […] The inhibiting efficiency in reporter 293T cells was calculated using the following equation: E’ = (P2 − P1)/(P0 − P1) × 100%, where E’ is the inhibiting efficiency in reporter 293T cells, and P0, P1, and P2 are the GFP positive cell ratio of the uninduced group, Dox and DMSO treated control group, and Dox and compound treated group, respectively.

SpCas9 [2] = biological target: T1, SpCas9 (Streptococcus pyogenes serotype M1, UniProt Q99ZW2); test: Inhibition of SpCas9 nuclease activity in EGFP/iCas9/gRNA-EGFP reporter 293T cells (flow cytometry); format: cell-based; design: expressed in transfected cells; host or cells: H2AX-EGFP HEK293T cells, lentiviral transduction, doxycycline-induced
T1 sequence (Q99ZW2 whole entry): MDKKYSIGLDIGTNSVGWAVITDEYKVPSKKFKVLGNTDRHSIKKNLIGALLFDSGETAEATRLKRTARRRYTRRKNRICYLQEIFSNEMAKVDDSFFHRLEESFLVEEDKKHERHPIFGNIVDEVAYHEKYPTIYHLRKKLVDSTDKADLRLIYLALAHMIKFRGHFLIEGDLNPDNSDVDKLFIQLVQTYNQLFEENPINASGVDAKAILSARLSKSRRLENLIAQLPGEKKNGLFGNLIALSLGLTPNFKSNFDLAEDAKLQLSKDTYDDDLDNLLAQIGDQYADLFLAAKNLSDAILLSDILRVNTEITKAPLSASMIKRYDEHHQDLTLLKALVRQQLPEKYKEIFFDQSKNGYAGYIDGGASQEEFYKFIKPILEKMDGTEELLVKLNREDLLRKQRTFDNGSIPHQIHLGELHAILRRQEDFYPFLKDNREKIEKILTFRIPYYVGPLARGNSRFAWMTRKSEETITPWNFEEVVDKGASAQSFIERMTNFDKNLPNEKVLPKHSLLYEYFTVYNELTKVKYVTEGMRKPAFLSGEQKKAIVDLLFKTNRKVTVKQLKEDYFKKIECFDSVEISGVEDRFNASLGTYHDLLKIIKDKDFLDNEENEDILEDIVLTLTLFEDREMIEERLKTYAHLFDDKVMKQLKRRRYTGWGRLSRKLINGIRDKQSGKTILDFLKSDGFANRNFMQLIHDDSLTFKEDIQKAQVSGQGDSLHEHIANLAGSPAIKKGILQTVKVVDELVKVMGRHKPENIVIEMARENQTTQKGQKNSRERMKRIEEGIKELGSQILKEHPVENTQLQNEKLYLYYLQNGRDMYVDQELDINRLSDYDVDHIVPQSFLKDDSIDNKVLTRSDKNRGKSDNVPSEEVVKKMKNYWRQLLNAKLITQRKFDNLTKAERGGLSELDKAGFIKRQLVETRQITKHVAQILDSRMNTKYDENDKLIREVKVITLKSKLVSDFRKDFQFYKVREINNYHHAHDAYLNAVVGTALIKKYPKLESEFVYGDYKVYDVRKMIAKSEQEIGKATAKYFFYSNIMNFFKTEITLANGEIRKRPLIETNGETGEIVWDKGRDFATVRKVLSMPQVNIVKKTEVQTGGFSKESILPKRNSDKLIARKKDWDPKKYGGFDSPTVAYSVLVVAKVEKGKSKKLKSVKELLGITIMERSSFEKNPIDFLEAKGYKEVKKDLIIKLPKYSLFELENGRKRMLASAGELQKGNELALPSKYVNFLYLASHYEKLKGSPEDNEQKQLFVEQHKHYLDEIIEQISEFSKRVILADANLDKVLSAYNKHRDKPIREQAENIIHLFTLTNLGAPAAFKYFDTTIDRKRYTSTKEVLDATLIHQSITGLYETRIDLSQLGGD
Source text: The H2AX-EGFP 293T cell line was first generated using the previously reported MMEJ-mediated CRIS-PITCh system. Briefly, we cloned two gRNAs (Supplementary Table S3) that respectively target H2AX gene and the PITCh vector into the px330 plasmid (Addgene, #42230). The PITCh vector contains a pair of 20-bp homologous sequences targeting the upstream and downstream regions of the H2AX gRNA cleavage site, and the SFB-EGFP expression cassette. The three plasmids were co-transfected into 293T cells at an equimolar ratio. GFP-positive cells were sorted by FACS and individually expanded to isolate single clones for genomic DNA extraction and PCR verification of successful knock-in (KI) of the SFB-EGFP cassette into 5′-end of first exon of the H2AX gene. The selected H2AX-EGFP 293T cell clone was subsequently infected with lentiviruses encoding tetracycline-inducible SpCas9 (iCas9). After drug selection, individual clones were again expanded and verified for inducible Cas9 expression. The selected clone was subsequently infected with lentivirus encoding a gRNA that targets EGFP. Puromycin-resistant clones ([…], Thermo Fisher Scientific) were then isolated after >7 days for further analysis.

NotI = NotI in vitro cleavage assay; format: biochemical; conditions: compound 200 μM
Procedure: (§1) In vitro cleavage experiments used commercial restriction enzymes (Thermo Fisher Scientific). The restriction enzyme NotI or XbaI (0.1 μL) was mixed with the compounds in a FastDigest buffer (Thermo Fisher Scientific). It was then incubated at room temperature for 10 min, and an ApaI-linearized px458 plasmid was added and reacted at 37 °C for 15 min. The samples were mixed with a DNA loading buffer. The cleavage products were electrophoresed on 1% TAE agarose gel and imaged using a Bio-Rad gel imager.

XbaI = XbaI in vitro cleavage assay; format: biochemical; conditions: compound 200 μM
Procedure: as §1

SpCas9 [3] = biological target: T1, SpCas9; test: SpCas9 in vitro DNA cleavage assay; format: biochemical; design: His6 (N); TEV site (N); made in house; host or cells: E. coli BL21 Star (DE3)
Procedure: The assay was carried out in NEBuffer 3 (New England Biolabs, Ipswich, MA, USA). First, 19.2 μL of the SpCas9–gRNA (58.8 nM) mixture was incubated with 2.4 μL of various compounds (dissolved in DMSO) at desired concentrations (0.1–2 mM) at room temperature for 10 min. Then, 2.4 μL of 3.48 nM ApaI-linearized px458 plasmid was added for further incubation at 37 °C for 60 min. The reaction was terminated by adding 0.5 μL Proteinase K (20 mg/mL) (Invitrogen) and incubation at 55 °C for 15 min. The reaction products were resolved on a 0.7% TAE agarose gel, stained with Gel Red (Biotium, Fremont, CA, USA). Then the products were visualized by Chemidoc XRS plus system (Bio-Rad, Hercules, CA, USA), and band intensities were quantified using ImageJ software (National Institutes of Health developed; Bethesda, MD, USA). The inhibition efficiency in the cleavage assays was calculated using the following equation: E = (C1 − C2)/C1 × 100%, where E is the inhibition efficiency, and C1 and C2 are the cleavage rate of the DMSO group and compound treated group, respectively.
The cleavage rate was calculated using the following equation:C = (B1 + B2)/(B0 + B1 + B2) × 100%, where C is the cleavage rate, B0, B1, and B2 are the band intensities of uncleaved products, upper cleaved products, and lower cleaved products, respectively.

[4] = tested on: Streptococcus pyogenes Cas9 (SpCas9); conditions: inhibits SpCas9 by blocking its binding to DNA; ref [33]; cited from earlier work

Compound: 1-(2-(4-nitrophenyl) hydrazono)-4-bromo-acetophenone [C12]
effect on EGFP expression in the absence of Dox induction ([1]; 100 μM, reporter cells, no Dox): no effects
efficiency of SpCas9 inhibition in reporter cells (SpCas9 [2]; 100 μM, Dox 2 μg/mL, 72 h): 17.1%
activity of NotI (NotI): not affected
activity of XbaI (XbaI): not affected
inhibition rate, in vitro SpCas9 cleavage (SpCas9 [3]; compound 200 μM, SpCas9–gRNA 58.8 nM, linearized plasmid 3.48 nM): 84%

melting point: 190.3 to 191.7 °C
Compound: CCC(=O)C=NNc1ccc([N+](=O)[O-])cc1 [C9, 1-(2-(4-nitrophenyl) hydrazono)butanone]

Compound: O=C(C=NNc1ccc(Cl)cc1)c1ccc(Br)cc1 [C12b, 1-(4-bromophenyl)-2-(2-(4-chlorophenyl)hydrazono)ethanone]
melting point: 235.2 to 237.2 °C
inhibitory activity in in vitro SpCas9 cleavage (in words) (SpCas9 [3]; compound 200 μM): strong inhibitory activities
inhibition at 200 µM (SpCas9 [3]; read-out: inhibition rate, in vitro SpCas9 cleavage): 89%

Compound: O=C(C=NNc1cc([N+](=O)[O-])ccc1O)c1ccc(Br)cc1 [C12c, 1-(4-bromophenyl)-2-(2-(2-hydroxy-5-nitrophenyl)hydrazono)ethanone]
effect on EGFP expression in uninduced reporter 293T cells ([1]; uninduced, concentration not given): did not negatively affect
inhibition at 40 µM (SpCas9 [2]; HEK-293T, read-out: SpCas9 inhibition in reporter cells): ~50%
melting point: 246.6 to 247.2 °C
inhibitory activity in in vitro SpCas9 cleavage (in words) (SpCas9 [3]; compound 200 μM): weakly inhibited

Compound: O=C(C(=NNc1ccc([N+](=O)[O-])cc1)n1cncn1)c1ccc(F)cc1F [C12d, 1-(2,4-difluorophenyl)-2-(2-(4-nitrophenyl)hydrazono)-2-(1H-1,2,4-triazol-1-yl)ethanone]
inhibitory activity in in vitro SpCas9 cleavage (in words) (SpCas9 [3]; compound 200 μM): weakly inhibited

Compound: O=C1CCCC/C1=N/Nc1ccc(N2CCCCC2)cc1 [SP5]
SpCas9 inhibition in reporter cells (SpCas9 [2]; 40 μM, Dox 2 μg/mL, 72 h): less than 50%

Compound: O=C1CCCC/C1=N\Nc1ccc([N+](=O)[O-])cc1 [SP6]
SpCas9 inhibition in reporter cells (SpCas9 [2]; 40 μM, Dox 2 μg/mL, 72 h): less than 50%

Compound: COc1ccc(C(=O)Oc2ccccc2/C=N\Nc2ccc([N+](=O)[O-])cc2)cc1 [SP8]
SpCas9 inhibition in reporter cells (SpCas9 [2]; 40 μM, Dox 2 μg/mL, 72 h): less than 50%

Compound: O=C1CCCC/C1=N/Nc1ccc(OC2CCCCC2)cc1 [SP9]
SpCas9 inhibition in reporter cells (SpCas9 [2]; 10 μM, Dox 2 μg/mL, 72 h): less than 50%
SpCas9 inhibition in reporter cells (SpCas9 [2]; 40 μM, Dox 2 μg/mL, 72 h): > 50%

Compound: CCCCOC(=O)c1ccc(NN=c2c(=O)c3ccccc3c2=O)cc1 [SP11]
SpCas9 inhibition in reporter cells (SpCas9 [2]; 40 μM, Dox 2 μg/mL, 72 h): less than 50%

Compound: Cc1cccc(N/N=C(/C#N)C(=O)c2ccc(Br)cc2)c1 [SP12]
SpCas9 inhibition in reporter cells (SpCas9 [2]; 10 μM, Dox 2 μg/mL, 72 h): less than 50%
SpCas9 inhibition in reporter cells (SpCas9 [2]; 40 μM, Dox 2 μg/mL, 72 h): > 50%

Compound: COc1ccc(C(=O)/C(C#N)=N/Nc2ccccc2[N+](=O)[O-])cc1 [SP14]
effect on EGFP expression in uninduced cells ([1]; uninduced): reduce EGFP expression (albeit slightly)
SpCas9 inhibition in reporter cells (SpCas9 [2]; 10 μM, Dox 2 μg/mL, 72 h): 50%

Compound: Cc1ccc(C(=O)/C(C#N)=N\Nc2ccc([N+](=O)[O-])cc2)cc1 [SP15]
effect on EGFP expression in uninduced cells ([1]; uninduced): reduce EGFP expression (albeit slightly)
SpCas9 inhibition in reporter cells (SpCas9 [2]; 10 μM, Dox 2 μg/mL, 72 h): 50%

Compound: O=C1CCCC/C1=N\Nc1ccc(OCc2ccccc2)cc1 [SP19]
SpCas9 inhibition in reporter cells (SpCas9 [2]; 40 μM, Dox 2 μg/mL, 72 h): less than 50%

Compound: COc1cc(Cl)ccc1N=NC1C(=O)N(c2ccccc2)N=C1C (stereo not drawn) [SP28]
SpCas9 inhibition in reporter cells (SpCas9 [2]; 40 μM, Dox 2 μg/mL, 72 h): less than 50%

Compound: CC1=NN(c2ccccc2)C(=O)C1N=Nc1nc2ccccc2s1 (stereo not drawn) [SP29]
effect on EGFP expression in uninduced cells ([1]; uninduced): reduce EGFP expression (albeit slightly)
SpCas9 inhibition in reporter cells (SpCas9 [2]; 10 μM, Dox 2 μg/mL, 72 h): 50%

Compound: O=C(Oc1ccc(/C=N/Nc2ccccc2)cc1)c1cc([N+](=O)[O-])cc([N+](=O)[O-])c1 [SP32]
SpCas9 inhibition in reporter cells (SpCas9 [2]; 10 μM, Dox 2 μg/mL, 72 h): less than 50%
SpCas9 inhibition in reporter cells (SpCas9 [2]; 40 μM, Dox 2 μg/mL, 72 h): > 50%

Compound: Cc1nc2ccc(N=NC3=C(O)CCCC3=O)cc2s1 [SP33]
SpCas9 inhibition in reporter cells (SpCas9 [2]; 40 μM, Dox 2 μg/mL, 72 h): less than 50%

Compound: CCOC(=O)c1oc2c(c1C)/C(=N\Nc1ccc([N+](=O)[O-])cc1)CCC2 [SP34]
SpCas9 inhibition in reporter cells (SpCas9 [2]; 40 μM, Dox 2 μg/mL, 72 h): less than 50%

Compound: CC1(C)CC(=O)C(N=Nc2ccc3ncsc3c2)=C(O)C1 [SP36]
SpCas9 inhibition in reporter cells (SpCas9 [2]; 40 μM, Dox 2 μg/mL, 72 h): less than 50%

Compound: BRD0539
IC50 [4]: 22 µM
